In ChEMBL document CHEMBL5512619, “Anticancer mechanism of coumarin-based derivatives” (Eur J Med Chem, 2024):

Key:
[1] = biological target: Epidermal growth factor receptor (Homo sapiens, UniProt P00533); assay: Inhibition of EGFR (unknown origin)
HepG2 [2] = assay: Cytotoxicity against human HepG2 cells incubated for 72 hrs by MTT assay; format: functional, cell-based; details: HepG2, 72 h
[3] = Cytotoxicity against human Lu1 cells incubated for 72 hrs by MTT assay; format: functional, cell-based; details: Lu1, 72 h
[4] = biological target: Receptor tyrosine-protein kinase erbB-2 (Homo sapiens, UniProt P04626); assay: Inhibition of HER2 (unknown origin)
HeLa [5] = assay: Cytotoxicity against human HeLa cells incubated for 72 hrs by MTT assay; format: functional, cell-based
SK-OV-3 = assay: Antiproliferative activity against human SK-OV-3 cells measured after 21 hrs by MTT assay; format: functional, cell-based; details: SK-OV-3, 21 h
Albumin = Albumin (Homo sapiens, UniProt P02768); assay: Reversible binding affinity to human serum albumin
[6] = Antiproliferative activity against human Lu1 cells assessed as inhibition of cell growth after 72 hrs by MTT assay; format: functional, cell-based; details: Lu1, 72 h
SK-MEL-2 = assay: Antiproliferative activity against human SK-MEL-2 cells assessed as inhibition of cell growth after 72 hrs by MTT assay; format: functional, cell-based; details: SK-MEL-2, 72 h
HeLa [7] = assay: Antiproliferative activity against human HeLa cells assessed as inhibition of cell growth after 72 hrs by MTT assay; format: functional, cell-based
HepG2 [8] = assay: Antiproliferative activity against human HepG2 cells assessed as inhibition of cell growth after 72 hrs by MTT assay; format: functional, cell-based; details: HepG2, 72 h
MCF7 = assay: Antiproliferative activity against human MCF7 cells assessed as inhibition of cell growth after 72 hrs by MTT assay; format: functional, cell-based; details: MCF7, 72 h
HeLa [9] = assay: Cytotoxicity against human HeLa cells; format: functional, cell-based
HepG2 [10] = assay: Cytotoxicity against human HepG2 cells; format: functional, cell-based
[11] = Cytotoxicity against human Lu1 cells; format: functional, cell-based

Albumin, sequence (P02768 whole entry): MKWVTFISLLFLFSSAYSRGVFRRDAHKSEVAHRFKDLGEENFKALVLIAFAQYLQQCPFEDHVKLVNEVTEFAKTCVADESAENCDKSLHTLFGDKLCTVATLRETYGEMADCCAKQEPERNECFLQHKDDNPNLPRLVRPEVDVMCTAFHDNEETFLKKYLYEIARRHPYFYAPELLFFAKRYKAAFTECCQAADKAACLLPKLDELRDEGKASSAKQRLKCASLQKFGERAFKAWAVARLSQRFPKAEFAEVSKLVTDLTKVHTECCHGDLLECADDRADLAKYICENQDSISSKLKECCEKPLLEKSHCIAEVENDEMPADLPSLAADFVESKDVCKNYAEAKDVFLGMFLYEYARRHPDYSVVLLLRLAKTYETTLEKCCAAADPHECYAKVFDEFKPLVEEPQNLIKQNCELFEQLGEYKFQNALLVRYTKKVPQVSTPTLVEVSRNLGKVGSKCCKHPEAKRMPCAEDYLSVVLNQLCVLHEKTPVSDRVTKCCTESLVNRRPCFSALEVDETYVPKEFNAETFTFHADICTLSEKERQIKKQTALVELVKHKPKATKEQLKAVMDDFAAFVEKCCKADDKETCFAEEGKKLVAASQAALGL
Epidermal growth factor receptor, sequence (P00533 whole entry): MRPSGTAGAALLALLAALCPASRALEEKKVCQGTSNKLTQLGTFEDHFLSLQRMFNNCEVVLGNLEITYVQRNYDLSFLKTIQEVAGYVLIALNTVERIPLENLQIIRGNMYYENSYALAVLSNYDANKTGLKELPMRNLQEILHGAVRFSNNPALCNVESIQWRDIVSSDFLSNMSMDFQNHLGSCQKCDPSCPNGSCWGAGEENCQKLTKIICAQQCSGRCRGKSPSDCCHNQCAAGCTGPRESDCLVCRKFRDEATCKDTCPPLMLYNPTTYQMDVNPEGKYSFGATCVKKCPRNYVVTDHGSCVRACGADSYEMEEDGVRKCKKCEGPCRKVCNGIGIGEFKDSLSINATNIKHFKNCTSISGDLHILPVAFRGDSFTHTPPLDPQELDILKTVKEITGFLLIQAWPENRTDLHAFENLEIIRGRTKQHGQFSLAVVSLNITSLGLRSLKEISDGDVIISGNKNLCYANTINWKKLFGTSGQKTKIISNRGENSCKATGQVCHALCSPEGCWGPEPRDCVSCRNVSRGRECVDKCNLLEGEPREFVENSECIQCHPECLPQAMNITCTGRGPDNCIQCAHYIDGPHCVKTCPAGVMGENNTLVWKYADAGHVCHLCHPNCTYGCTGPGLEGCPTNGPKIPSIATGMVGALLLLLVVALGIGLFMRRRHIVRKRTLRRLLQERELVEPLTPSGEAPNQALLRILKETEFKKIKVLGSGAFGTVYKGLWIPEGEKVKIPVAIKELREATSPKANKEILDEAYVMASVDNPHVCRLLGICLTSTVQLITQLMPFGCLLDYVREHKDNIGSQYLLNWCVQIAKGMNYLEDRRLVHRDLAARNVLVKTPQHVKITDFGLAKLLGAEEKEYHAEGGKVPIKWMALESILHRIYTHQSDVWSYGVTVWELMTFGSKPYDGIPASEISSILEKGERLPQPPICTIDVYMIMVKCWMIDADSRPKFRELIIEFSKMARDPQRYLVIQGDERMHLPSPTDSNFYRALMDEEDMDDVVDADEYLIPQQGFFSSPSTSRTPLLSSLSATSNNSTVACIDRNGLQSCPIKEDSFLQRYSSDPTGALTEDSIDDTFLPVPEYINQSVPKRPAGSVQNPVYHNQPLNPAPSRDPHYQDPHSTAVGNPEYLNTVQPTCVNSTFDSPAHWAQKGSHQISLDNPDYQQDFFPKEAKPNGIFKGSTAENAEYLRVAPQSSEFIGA
Receptor tyrosine-protein kinase erbB-2, sequence (P04626 whole entry): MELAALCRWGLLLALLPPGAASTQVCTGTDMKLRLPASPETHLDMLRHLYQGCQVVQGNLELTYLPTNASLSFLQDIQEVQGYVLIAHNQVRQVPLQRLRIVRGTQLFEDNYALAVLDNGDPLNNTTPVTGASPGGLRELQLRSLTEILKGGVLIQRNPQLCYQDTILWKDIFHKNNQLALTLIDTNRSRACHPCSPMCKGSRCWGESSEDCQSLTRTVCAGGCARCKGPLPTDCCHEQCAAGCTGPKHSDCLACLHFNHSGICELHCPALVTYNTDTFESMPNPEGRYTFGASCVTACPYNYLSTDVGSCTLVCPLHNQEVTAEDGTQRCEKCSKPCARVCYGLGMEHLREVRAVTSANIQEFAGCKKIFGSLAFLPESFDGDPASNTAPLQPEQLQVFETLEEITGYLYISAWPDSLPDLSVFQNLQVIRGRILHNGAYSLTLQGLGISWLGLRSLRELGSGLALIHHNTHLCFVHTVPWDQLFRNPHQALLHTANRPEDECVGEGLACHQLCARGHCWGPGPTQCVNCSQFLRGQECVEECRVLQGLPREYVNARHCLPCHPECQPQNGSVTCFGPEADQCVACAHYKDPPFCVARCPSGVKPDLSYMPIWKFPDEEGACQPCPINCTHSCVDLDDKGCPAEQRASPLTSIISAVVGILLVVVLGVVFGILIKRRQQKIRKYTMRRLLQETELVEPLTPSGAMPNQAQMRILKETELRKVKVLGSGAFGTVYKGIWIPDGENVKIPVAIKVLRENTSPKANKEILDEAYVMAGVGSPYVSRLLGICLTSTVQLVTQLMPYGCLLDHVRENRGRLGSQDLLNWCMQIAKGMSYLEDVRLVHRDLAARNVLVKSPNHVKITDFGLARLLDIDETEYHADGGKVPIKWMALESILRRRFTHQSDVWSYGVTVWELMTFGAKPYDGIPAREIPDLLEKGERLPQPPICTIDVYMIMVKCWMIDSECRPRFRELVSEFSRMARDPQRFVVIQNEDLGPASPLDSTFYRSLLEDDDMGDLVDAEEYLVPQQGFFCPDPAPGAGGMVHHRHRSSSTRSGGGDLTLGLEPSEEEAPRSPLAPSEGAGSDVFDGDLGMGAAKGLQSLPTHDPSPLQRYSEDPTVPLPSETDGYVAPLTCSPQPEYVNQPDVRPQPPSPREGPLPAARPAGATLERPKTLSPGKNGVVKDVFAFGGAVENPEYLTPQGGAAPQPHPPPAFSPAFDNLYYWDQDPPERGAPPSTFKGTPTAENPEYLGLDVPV

Row | SMILES | IC50 [1] | IC50 [4] | IC50 [6] | IC50 (SK-MEL-2) | IC50 (HeLa [7]) | IC50 (HepG2 [8]) | IC50 (MCF7) | further results
1 | CCCCOc1ccc2oc(=O)cc(C3SC(N(C(C)=O)[C@@H]4O[C@H](COC(C)=O)[C@@H](OC(C)=O)[C@H](OC(C)=O)[C@H]4OC(C)=O)=NN3C(C)=O)c2c1 (some centres undefined) | 0.22 µM | 0.13 µM |  |  |  |  |  | IC50 (HepG2 [2]): 1.18 µM; IC50 [3]: 1.18 µM; IC50 (HeLa [5]): 1.18 µM
2 | O=c1ccc2ccc(O[C@@H]3O[C@H](CO[C@@H]4OC[C@](O)(CO)[C@H]4O)[C@@H](O)[C@H](O)[C@H]3O)cc2o1 |  |  |  |  |  |  |  | IC50 (SK-OV-3): > 100 µM
3 | Cc1cc(=O)oc2cc(NCc3cc(Br)cc(Br)c3O)ccc12 |  |  |  |  |  |  |  | Kd (Albumin): 0.03 µM
4 | CC(=O)OC[C@H]1O[C@@H](N(C(C)=O)C2=NN(C(C)=O)C(c3cc(=O)oc4ccc(OCCC(C)C)cc34)S2)[C@H](OC(C)=O)[C@@H](OC(C)=O)[C@@H]1OC(C)=O (some centres undefined) | 0.22 µM | 0.13 µM |  |  |  |  |  | IC50 (HepG2 [2]): 1.18 µM; IC50 [3]: 1.18 µM; IC50 (HeLa [5]): 1.18 µM
5 | CC(=O)OC[C@H]1O[C@@H](NC(=S)N/N=C(\C)c2cc3cc(Cl)ccc3oc2=O)[C@H](OC(C)=O)[C@@H](OC(C)=O)[C@H]1OC(C)=O |  |  | 1.28 µM | 1.28 µM | 1.28 µM | 1.28 µM | 1.28 µM | 
6 | CC(=O)OC[C@H]1O[C@@H](N(C(C)=O)C2=NN(C(C)=O)C(c3cc(=O)oc4cc(OCC(C)C)ccc34)S2)[C@H](OC(C)=O)[C@@H](OC(C)=O)[C@@H]1OC(C)=O (some centres undefined) | 0.22 µM | 0.13 µM |  |  |  |  |  | IC50 (HepG2 [2]): 1.18 µM; IC50 [3]: 1.18 µM; IC50 (HeLa [5]): 1.18 µM
7 | CC(=O)OC[C@H]1O[C@@H](NC(=S)N/N=C(\C)c2c(O)c3ccccc3oc2=O)[C@H](OC(C)=O)[C@@H](OC(C)=O)[C@H]1OC(C)=O |  |  | 1.28 µM | 1.28 µM | 1.28 µM | 1.28 µM | 1.28 µM | 
8 | Cc1cc(=O)oc2cc(NCc3ccccc3O)ccc12 |  |  |  |  |  |  |  | Kd (Albumin): 0.03 µM
9 | CC(=O)OC[C@H]1O[C@@H](N(C(C)=O)C2=NN(C(C)=O)C(c3cc(=O)oc4cc(OCCC(C)C)ccc34)S2)[C@H](OC(C)=O)[C@@H](OC(C)=O)[C@@H]1OC(C)=O (some centres undefined) | 0.22 µM | 0.13 µM |  |  |  |  |  | IC50 (HepG2 [2]): 1.18 µM; IC50 [3]: 1.18 µM; IC50 (HeLa [5]): 1.18 µM
10 | CC(=O)OC[C@H]1O[C@@H](n2c(-c3ccccc3)cs/c2=N\N=C\c2cc(=O)oc3cc(C)ccc23)[C@H](OC(C)=O)[C@@H](OC(C)=O)[C@@H]1OC(C)=O |  |  |  |  |  |  |  | IC50 (HeLa [9]): 1.18 µM; IC50 (HepG2 [10]): 1.18 µM; IC50 [11]: 1.18 µM
11 | CC(=O)OC[C@H]1O[C@@H](n2c(-c3ccccc3)cs/c2=N\N=C\c2cc(=O)oc3ccc(OCC(C)C)cc23)[C@H](OC(C)=O)[C@@H](OC(C)=O)[C@@H]1OC(C)=O | 0.15 µM | 0.15 µM |  |  |  |  |  | IC50 (HeLa [9]): 1.18 µM; IC50 (HepG2 [10]): 1.18 µM; IC50 [11]: 1.18 µM
12 | CC(=O)OC[C@H]1O[C@@H](NC(=S)N/N=C(\C)c2cc3cc(Br)ccc3oc2=O)[C@H](OC(C)=O)[C@@H](OC(C)=O)[C@H]1OC(C)=O |  |  | 1.28 µM | 1.28 µM | 1.28 µM | 1.28 µM | 1.28 µM | 
13 | CCCCCOc1ccc2oc(=O)cc(C3SC(N(C(C)=O)[C@@H]4O[C@H](COC(C)=O)[C@@H](OC(C)=O)[C@H](OC(C)=O)[C@H]4OC(C)=O)=NN3C(C)=O)c2c1 (some centres undefined) | 0.22 µM | 0.13 µM |  |  |  |  |  | IC50 (HepG2 [2]): 1.18 µM; IC50 [3]: 1.18 µM; IC50 (HeLa [5]): 1.18 µM
14 | CC(=O)OC[C@H]1O[C@@H](n2c(-c3ccccc3)cs/c2=N\N=C(/C)c2cc3ccccc3oc2=O)[C@H](OC(C)=O)[C@@H](OC(C)=O)[C@@H]1OC(C)=O |  |  |  |  |  |  |  | IC50 (HeLa [9]): 1.18 µM; IC50 (HepG2 [10]): 1.18 µM; IC50 [11]: 1.18 µM
15 | Cc1cc(=O)oc2cc(NCc3cc(I)cc(I)c3O)ccc12 |  |  |  |  |  |  |  | Kd (Albumin): 0.03 µM
16 | CC(=O)OC[C@H]1O[C@@H](NC(=S)N/N=C(\C)c2cc3ccccc3oc2=O)[C@H](OC(C)=O)[C@@H](OC(C)=O)[C@H]1OC(C)=O |  |  | 1.28 µM | 1.28 µM | 1.28 µM | 1.28 µM | 1.28 µM | 

Row | SMILES | IC50 [1] | IC50 [4] | IC50 [6] | IC50 (SK-MEL-2) | IC50 (HeLa [7]) | IC50 (HepG2 [8]) | IC50 (MCF7) | further results
17 | CCOc1ccc2c(C3SC(N(C(C)=O)[C@@H]4O[C@H](COC(C)=O)[C@H](OC(C)=O)[C@H](OC(C)=O)[C@H]4OC(C)=O)=NN3C(C)=O)cc(=O)oc2c1 (some centres undefined) | 0.22 µM | 0.13 µM |  |  |  |  |  | IC50 (HepG2 [2]): 1.18 µM; IC50 [3]: 1.18 µM; IC50 (HeLa [5]): 1.18 µM
18 | CC(=O)OC[C@H]1O[C@@H](n2c(-c3ccccc3)cs/c2=N\N=C(/C)c2cc3cc(Cl)ccc3oc2=O)[C@H](OC(C)=O)[C@@H](OC(C)=O)[C@H]1OC(C)=O |  |  |  |  |  |  |  | IC50 (HeLa [9]): 1.18 µM; IC50 (HepG2 [10]): 1.18 µM; IC50 [11]: 1.18 µM
19 | CC(=O)OC[C@H]1O[C@@H](n2c(-c3ccccc3)cs/c2=N\N=C(/C)c2cc3cc(Br)ccc3oc2=O)[C@H](OC(C)=O)[C@@H](OC(C)=O)[C@H]1OC(C)=O |  |  |  |  |  |  |  | IC50 (HeLa [9]): 1.18 µM; IC50 (HepG2 [10]): 1.18 µM; IC50 [11]: 1.18 µM
20 | CC(C)(O[C@@H]1O[C@H](CO)[C@@H](O)[C@H](O)[C@H]1O)[C@@H]1Cc2cc3ccc(=O)oc3cc2O1 |  |  |  |  |  |  |  | IC50 (SK-OV-3): > 100 µM
21 | CC(=O)OC[C@H]1O[C@@H](NC(=S)N/N=C(\C)c2cc3ccc(C)cc3oc2=O)[C@H](OC(C)=O)[C@@H](OC(C)=O)[C@H]1OC(C)=O |  |  | 1.28 µM | 1.28 µM | 1.28 µM | 1.28 µM | 1.28 µM | 
22 | CC(=O)OC[C@H]1O[C@@H](NC(=S)N/N=C(\C)c2c(C)c3ccccc3oc2=O)[C@H](OC(C)=O)[C@@H](OC(C)=O)[C@H]1OC(C)=O |  |  | 1.28 µM | 1.28 µM | 1.28 µM | 1.28 µM | 1.28 µM | 
23 | COc1cccc2cc(/C(C)=N/NC(=S)N[C@@H]3O[C@H](COC(C)=O)[C@H](OC(C)=O)[C@H](OC(C)=O)[C@H]3OC(C)=O)c(=O)oc12 |  |  | 1.28 µM | 1.28 µM | 1.28 µM | 1.28 µM | 1.28 µM | 
24 | CC(=O)OC[C@H]1O[C@@H](NC(=S)N/N=C(\C)c2c(C)c3ccc(O)cc3oc2=O)[C@H](OC(C)=O)[C@@H](OC(C)=O)[C@H]1OC(C)=O |  |  | 1.28 µM | 1.28 µM | 1.28 µM | 1.28 µM | 1.28 µM | 
25 | CC(=O)OC[C@H]1O[C@@H](NC(=S)N/N=C(\C)c2cc3cc(C)ccc3oc2=O)[C@H](OC(C)=O)[C@@H](OC(C)=O)[C@H]1OC(C)=O |  |  | 1.28 µM | 1.28 µM | 1.28 µM | 1.28 µM | 1.28 µM | 
26 | CCOc1ccc2oc(=O)cc(C3SC(N(C(C)=O)[C@@H]4O[C@H](COC(C)=O)[C@H](OC(C)=O)[C@H](OC(C)=O)[C@H]4OC(C)=O)=NN3C(C)=O)c2c1 (some centres undefined) | 0.22 µM | 0.13 µM |  |  |  |  |  | IC50 (HepG2 [2]): 1.18 µM; IC50 [3]: 1.18 µM; IC50 (HeLa [5]): 1.18 µM
27 | Cc1cc(=O)oc2cc(NCc3cc(Cl)cc(Cl)c3O)ccc12 |  |  |  |  |  |  |  | Kd (Albumin): 0.03 µM
28 | CC(=O)OC[C@H]1O[C@@H](n2c(-c3ccccc3)cs/c2=N\N=C\c2cc(=O)oc3cc(OCCC(C)C)ccc23)[C@H](OC(C)=O)[C@@H](OC(C)=O)[C@@H]1OC(C)=O | 0.15 µM | 0.15 µM |  |  |  |  |  | IC50 (HeLa [9]): 1.18 µM; IC50 (HepG2 [10]): 1.18 µM; IC50 [11]: 1.18 µM
29 | Cc1cc(=O)oc2cc(NCc3cc([N+](=O)[O-])ccc3O)ccc12 |  |  |  |  |  |  |  | Kd (Albumin): 0.03 µM
30 | CCCCCOc1ccc2oc(=O)cc(/C=N/N=c3\scc(-c4ccccc4)n3[C@@H]3O[C@H](COC(C)=O)[C@@H](OC(C)=O)[C@H](OC(C)=O)[C@H]3OC(C)=O)c2c1 | 0.15 µM | 0.15 µM |  |  |  |  |  | IC50 (HeLa [9]): 1.18 µM; IC50 (HepG2 [10]): 1.18 µM; IC50 [11]: 1.18 µM
31 | CC(=O)OC[C@H]1O[C@@H](NC(=S)N/N=C(\C)c2c(O)c3cccc(C)c3oc2=O)[C@H](OC(C)=O)[C@@H](OC(C)=O)[C@H]1OC(C)=O |  |  | 1.28 µM | 1.28 µM | 1.28 µM | 1.28 µM | 1.28 µM | 
